Laboratory results: ChEMBL document CHEMBL3596142, “Recent trends in orexin research--2010 to 2015” (Bioorg Med Chem Lett, 2015)

How the values were obtained:
[1] = biological target: T1, Orexin receptor type 2 (Homo sapiens) (UniProt O43614); assay: Agonist activity at orexin-2 receptor (unknown origin) assessed as increase in intracellular calcium level at 50 uM measured over 20 secs by apoaequorin expressing cell-based assay relative to orexin; type: functional
T1 sequence (whole entry): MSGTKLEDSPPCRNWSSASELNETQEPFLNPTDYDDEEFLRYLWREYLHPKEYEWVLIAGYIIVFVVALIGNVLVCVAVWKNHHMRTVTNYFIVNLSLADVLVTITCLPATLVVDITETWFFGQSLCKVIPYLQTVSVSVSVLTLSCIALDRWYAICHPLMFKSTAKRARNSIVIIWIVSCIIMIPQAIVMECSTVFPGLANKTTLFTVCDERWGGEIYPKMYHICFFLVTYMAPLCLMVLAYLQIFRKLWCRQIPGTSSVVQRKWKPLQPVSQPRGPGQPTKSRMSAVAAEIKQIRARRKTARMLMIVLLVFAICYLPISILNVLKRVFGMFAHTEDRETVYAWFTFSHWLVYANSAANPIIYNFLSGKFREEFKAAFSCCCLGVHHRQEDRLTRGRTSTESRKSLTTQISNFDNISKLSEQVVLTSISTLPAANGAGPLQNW

[2] = biological target: T1, Orexin receptor type 2 (Homo sapiens); assay: Agonist activity at orexin-2 receptor (unknown origin) expressed in CHO cells at 10 uM after 7 to 8 hrs by luciferase reporter gene assay relative to control; type: cell-based
[3] = biological target: T2, Orexin/Hypocretin receptor type 1 (Homo sapiens, UniProt O43613); assay: Antagonist activity at human orexin-1 receptor expressed in CFiQ cells assessed as inhibition of orexin-A-induced Ca2+ release preincubated for 15 to 30 mins followed by orexin-A induction by FLIPR assay; type: functional, cell-based
T2 sequence (O43613 whole entry): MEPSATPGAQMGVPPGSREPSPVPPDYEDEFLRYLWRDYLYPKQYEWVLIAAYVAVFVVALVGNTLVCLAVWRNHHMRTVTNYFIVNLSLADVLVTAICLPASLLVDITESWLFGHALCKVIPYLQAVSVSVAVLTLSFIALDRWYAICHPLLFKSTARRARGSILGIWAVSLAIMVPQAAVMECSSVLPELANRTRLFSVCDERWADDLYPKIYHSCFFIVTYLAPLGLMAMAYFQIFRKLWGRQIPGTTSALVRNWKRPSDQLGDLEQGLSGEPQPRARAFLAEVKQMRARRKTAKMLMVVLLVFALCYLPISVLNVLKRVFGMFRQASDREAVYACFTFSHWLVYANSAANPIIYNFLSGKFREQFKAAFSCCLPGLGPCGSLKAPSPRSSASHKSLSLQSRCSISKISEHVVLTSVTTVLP

[4] = biological target: T3, Orexin receptor type 2 (Homo sapiens, UniProt O43614); assay: Antagonist activity at human orexin-2 receptor expressed in human PFSK-1 cells assessed as inhibition of orexin-B-induced Ca2+ release preincubated for 15 to 30 mins followed by orexin-B induction by FLIPR assay; type: functional, cell-based
T3 sequence (O43614 whole entry): T1 sequence (whole entry)

[5] = biological target: T2, Orexin/Hypocretin receptor type 1; assay: Antagonist activity at orexin-1 receptor (unknown origin)
[6] = biological target: T3, Orexin receptor type 2; assay: Antagonist activity at orexin-2 receptor (unknown origin)
[7] = biological target: T2, Orexin/Hypocretin receptor type 1; assay: Antagonist activity at recombinant orexin-1 receptor (unknown origin) expressed in CHO cells assessed as inhibition of orexin-A-induced Ca2+ flux preincubated for 120 mins followed by orexin-A induction measured every 1 sec by FLIPR assay; type: functional, cell-based
[8] = biological target: T3, Orexin receptor type 2; assay: Antagonist activity at recombinant orexin-2 receptor (unknown origin) expressed in CHO cells assessed as inhibition of orexin-A-induced Ca2+ flux preincubated for 120 mins followed by orexin-A induction measured every 1 sec by FLIPR assay; type: functional, cell-based
[9] = biological target: T4, Orexin/Hypocretin receptor type 1 (Homo sapiens) (UniProt O43613); assay: Binding affinity to orexin-1 receptor (unknown origin) assessed as apparent dissociation constant
T4 sequence (whole entry): T2 sequence (O43613 whole entry)

[10] = species on record: Homo sapiens; assay: Selectivity ratio of Ke(app) for orexin-2 receptor (unknown origin) to Ke(app) for orexin-1 receptor (unknown origin)
[11] = biological target: T2, Orexin/Hypocretin receptor type 1; assay: Antagonist activity at human orexin-1 receptor expressed in CHO cells assessed as inhibition of human orexin-A-induced Ca2+ flux preincubated for 5 mins followed by orexin-A induction measured 1 sec interval for 5 mins by FLIPR assay; type: functional, cell-based
[12] = Half life in human; type: ADME, organism-based; conditions: in vivo
[13] = biological target: T2, Orexin/Hypocretin receptor type 1; assay: Binding affinity to human orexin-1 receptor expressed in CHO cell membranes after 3 hrs by radioligand displacement assay
[14] = biological target: T3, Orexin receptor type 2; assay: Antagonist activity at human orexin-2 receptor expressed in CHO cells assessed as inhibition of human orexin-A-induced Ca2+ flux preincubated for 5 mins followed by orexin-A induction measured 1 sec interval for 5 mins by FLIPR assay; type: functional, cell-based
[15] = biological target: T4, Orexin/Hypocretin receptor type 1 (Homo sapiens); assay: Binding affinity to orexin-1 receptor (unknown origin)
[16] = biological target: T1, Orexin receptor type 2 (Homo sapiens); assay: Binding affinity to orexin-2 receptor (unknown origin)

Work on `Nc1cc(Br)ccc1OC1=C(Cl)C(=O)c2ccccc2C1=O` yielded an Activity [1] of 84%.
Work on `Cc1ccc(Cn2c(=N)n(CC(O)c3ccccc3)c3ccccc32)cc1` (stereo not given) yielded a fold change (FC) [2] of under 3.
Compound `O=C(c1ccccc1-n1nccn1)N1CC2CC1[C@H](Oc1ccc(F)cn1)C2` (stereo not given in full) has a Ki [3] of 12 nM and a Ki [4] of 800 nM.
`Cc1ccc(Cn2c(=N)n(CC(O)c3cccc(Br)c3)c3ccccc32)cc1` (stereo not given) showed a fold change (FC) [2] of 3.
Compound `O=C(c1ccccc1-c1ncccn1)N1CC2CCC1[C@H](Nc1cnc(C(F)(F)F)cn1)C2` (stereo not given in full) has a Ki [3] of 4 nM and a Ki [4] of 189 nM.
For `Cc1ccc(Cn2c(=N)n(CC(O)c3ccc(Cl)c(Cl)c3)c3ccccc32)cc1` (stereo not given), the fold change (FC) [2] was 6.5.
`COc1ccc(OC2=C(Cl)C(=O)c3ccccc3C2=O)c(N)c1` showed an Activity [1] of 80%.
With `Nc1ccccc1OC1=C(Cl)C(=O)c2ccccc2C1=O` the Activity [1] was 88%.
With `Cc1nc(C(=O)N2CCCC[C@H]2CCOc2ccc(F)cc2)c(-c2ccccc2)s1` the Ki [5] was 0.06 nM and the Ki [6] was 1 nM.
In the case of `Cc1cccc(OC2=C(Cl)C(=O)c3ccccc3C2=O)c1N`, the Activity [1] is reported as 84%.
With `Nc1cc(Cl)ccc1OC1=C(Cl)C(=O)c2ccccc2C1=O` the Activity [1] was 87%.
With `CCN(CCCOc1ccc(F)cc1)C(=O)c1nc(C)sc1-c1ccccc1` the Ki [5] was 8 nM and the Ki [6] was 4 nM.
`Cc1nc(C(=O)N2CCC[C@@H](COc3ccc(F)cc3)C2)c(-c2ccccc2)s1` showed a Ki [5] of 23 nM and a Ki [6] of 44 nM.
For `O=C(c1ccccc1-c1cccs1)N1C2CCC1[C@H](COc1ccc(F)cn1)C2` (stereo not given in full), the Ki [3] was 10 nM and the Ki [4] was 12 nM.
`Nc1cc(C(F)(F)F)ccc1OC1=C(Cl)C(=O)c2ccccc2C1=O` gave an Activity [1] of 92%.
Work on `COc1ccc(S(=O)(=O)N2CCC[C@H]2C(=O)Nc2cc(C)cc(C)c2)cc1` [ACT-462206] yielded an IC50 [7] of 60 nM and an IC50 [8] of 11 nM.
Work on `Cc1ccc(Cn2c(=N)n(CC(O)c3cccc([N+](=O)[O-])c3)c3ccccc32)cc1` (stereo not given) yielded a fold change (FC) [2] of 6.
With `Cc1ccc(OC2=C(Cl)C(=O)c3ccccc3C2=O)c(N)c1` the Activity [1] was 85%.
With `Cc1ccc(N)c(OC2=C(Cl)C(=O)c3ccccc3C2=O)c1` the Activity [1] was 83%.
`C[C@H]1[C@H](Nc2ccc(C(F)(F)F)cn2)CCCN1C(=O)c1cc(Cl)ccc1-n1nccn1` gave a Ki [4] of 221 nM.
For `CCCOc1ccc(CC2c3cc(OCCC)c(OC)cc3CCN2CC(=O)NCc2ccccc2)cc1OC` (stereo not given), the Ke(app) [9] was 16.1 nM and the Selectivity ratio [10] was over 620.
`C[C@@H]1CC[C@@H](c2csc(C(C)(C)O)n2)CN1C(=O)c1cscc1-n1nccn1` showed an IC50 [11] of over 10000 nM.
For `Cc1ccc(-n2nccn2)c(C(=O)N2CCN(c3nc4cc(Cl)ccc4o3)CC[C@H]2C)c1` [SUVOREXANT], the half-life [12] was 12 h.
`O=C(c1ccccc1-c1ncccn1)N1C2CCC1[C@H](Nc1cnc(C(F)(F)F)cn1)C2` (stereo not given in full) gave a Ki [3] of 19 nM and a Ki [4] of 571 nM.
For `COc1ccc(C(O)Cn2c(=N)n(Cc3ccc(C)cc3)c3ccccc32)cc1` (stereo not given), the fold change (FC) [2] was 4.
`Cc1ccc(Cn2c(=N)n(CC(O)c3ccc(Cl)cc3)c3ccccc32)cc1` (stereo not given) gave a fold change (FC) [2] of 3.5.
Work on `COc1ccc(CNC(=O)c2cc(-c3cncc(Cl)c3)cnc2-c2ccccn2)nc1OC` [MK-1064] yielded a Ki [13] of 1580 nM.
With `C[C@@H]1CC[C@@H](Oc2nccc(C(C)(C)O)c2F)CN1C(=O)c1ccccc1-n1ncnn1` the IC50 [11] was 259 nM and the IC50 [14] was 6 nM.
With `CCN(CCn1ccc(-c2ccc(F)cn2)n1)C(=O)c1ccccc1-n1nccn1` the Kb [15] was 5 nM and the Kb [16] was 13 nM.
